Measurements taken from US20240034752A1, “ARTIFICIAL SHORT INTERFERING PEPTIDE FOR THE PHOSPHORYLATION SUBSTRATE OF DAPK1 AND ITS PHARMACEUTICAL APPLICATIONS” (priority 2021, published 2024).

Experiments:
HT22 cells = assay: Glutamate insult test in HT22 cells, MTT assay; assay type: cell-based, Mouse; conditions: for reduced HT22 cell death: 400 nM peptide; for reduced HT22 cell death / reduced cell death: 6 mM glutamate, 24 h, MTT
Method: The group with 0 nM RvTAT-PKD-S205 was as a control. Cell Death rate (%)=100%×(Control OD−treatment OD)/Control OD. Data were shown as mean t SEM, (n=3), *p<0.05, **p<0.01, One-Way ANOVA followed by Multiple Comparisons versus the group with 0 nM RvTAT-PKD-S205 (Bonferroni t-test).
After 24 hours following glutamate exposure, cell cytotoxicity was determined by the MTT assay. HT22 cells, without the presence of the test agents in culture medium, were exposed separately 42 of 59 to 6 mM Glutamate salt as a control. Cell Death (%)=100%×(Control OD−treatment OD)/Control OD. Data were shown as mean±SEM, (n=3) * p<0.05, **p<0.01, One-Way ANOVA followed by Multiple Comparisons versus Glutamate Control Group (Bonferroni t-test).
The cells of HT-22 Mouse Hippocampal neuronal cell line were cultured and maintained in DMEM 10% fetal bovine serum, 100 U/ml penicillin and 100 μg/ml streptomycin. Cells were maintained at a temperature of 37° C. in 5% CO2/95% air. During agent's treatments and experimentation, HT-22 cells were seeded in 96-well plates by 6×10^3 cells/well and cultured at 37° C. in a CO2 incubator for 24 h. Afterwards, For neuroprotection assays, HT22 cells were exposure to 6 mM glutamate by removing media and adding Neurobasal Medium with present of 2% B27 (B27 (B-27™ Plus Supplement (50×)) and various concentrations of test agents for further 24 hours at 37° C. in the CO2 incubator. Cell viability was assessed by MTT assay.
Cell viability was quantitatively measured by 3-[4,5-dimethylthiazol-2-yl]-2,5-diphenyltetrazolium bromide (MTT) assay.
Water-soluble yellow dye MTT reagent (final concentration 0.5 mg/ml) was added to each well and incubated at 37° C. After 4 hours, the incubate medium was removed and 100 μl of Dimethyl Sulfoxide (DMSO) was added. After 30 min extraction at room temperature, the absorbance of the formazan solution is determined spectrophotometrically at 570 nm. MTT absorbance data were converted to reflect proportional cell viability relative to both the untreated and treated controls, wherein the untreated control was considered as 100% viability.

[1] = system: rat primary cortical neurons; assay: Oxygen-glucose deprivation (OGD)/reperfusion in primary cortical neuronal cultures, MTT assay; assay type: cell-based, Sprague Dawley rat
Method: (§1) To induce OGD, EBSS containing 20 mM pH7.2 Sodium dithionite (Na2S2O4) solution with test agents were transiently exposed for 1.5 hrs, afterwards, for reperfusion, OGD culture medium was replaced with normal neurobasal media. The culture cells were further incubated for 20 hours, and cell cytotoxicity was assessed using the MTT assay. Non-OGD treated cell culture was as a control taken as 100% viability, Cell Death rate (%)=100%×(Control OD−treatment OD)/Control OD. Data were shown as mean±SEM, (n=3) * p<0.05, One-Way ANOVA followed by Multiple Comparisons versus OGD CTRL Group (Bonferroni t-test).
as §1, with “peptides” for “agents”, “show” for “shown”, “(n=3)) ** p<0.01, *** p<0.005;” for “(n=3) * p<0.05,”
Primary cultures of mixed cortical cell cultures containing both neurons and glia were prepared from embryonic day 15-18 Sprague Dawley rat as described previously [Wenxiang Fan, 50 of 59 Xiang Li, Liangliang Huang, Shucheng He, Zhicheng Xie, Yuxin Fu, Weirong Fang, Yunman Li S-oxiracetam ameliorates ischemic stroke induced neuronal apoptosis through up-regulating α7nAChR and PI3K/Akt/GSK3β signal pathway in rats Neurochemistry International Volume 115, May 2018, Pages 50-60 https://doi.org/10.1016/j.Neuint.2018.01.008]. […]
Oxygen glucose deprivation were performed according to a previously method [J. Huang, N. D. Kodithuwakku, W. He. […] Finally, Cell viability was determined by MTT assay (same as 1.2) […]

[2] = system: transient middle cerebral artery occlusion/reperfusion (MCAO/R) stroke model; assay: Rotarod motor performance after MCAO/R; assay type: in vivo, Sprague-Dawley rats; conditions: 3.5 mg/kg i.v. 4.5 h after ischemia onset; for Holding time on rod increase: vs untreated control group
[3] = system: transient bilateral common carotid artery occlusion (tBCCAO/R) global cerebral ischemia model; assay: Y-maze passive avoidance after tBCCAO/R; assay type: in vivo, C57BL/6 mice; conditions: 7 mg/kg i.v. 3 h after tBCCAO; tested 24 h after tBCCAO/R; vs untreated group
Method: (§2) C57BL/6 mice were subjected to two times 20 minutes bilateral common carotid arteries occlusion followed by reperfusion (tBCCAO/R) and treated with 7 mg/2 ml/kg RvTAT-PKD-S205 or some volume Saline via tail vein administered after 3 hours of the tBCCAO. After 24 hours of reperfusion, the ischemic mice were estimated by the Y maze Passive Avoidance task, as well as the MDA content in hippocampus and brain water content. […] FIG. 6C show the MDA content in hippocampus collected from Ischemic or sham mice after 24 hours of reperfusion subject to MDA ELISA assay. […] Data were shown as mean±SEM, (n=11 in each group), *p<0.05, **p<0.01 compared to Saline control group using Student t test. Animal treatments were randomized, and all procedures were performed blinded to treatment. […]
The day before surgery, the researchers train the mice to avoid electric shocks caused by light sources, which can minimize the effects of odor. […] Learning and memory skill was quantified by Y maze passive avoidance task 24 hours after tBCCAO/R modeling (FIG. 6A).
After 24 hrs BCCAO/R mice were acclimatized to the testing room before conducting the Y-maze and allowed to familiarize themselves with the maze. […] A current stimulation of pre-determined intensity (0.05-0.8 mA) will be administered. […] The number to escape to the safe zone was recorded; any escapes to non-safe zones were regarded as erroneous. […]

[4] = system: transient middle cerebral artery occlusion/reperfusion (MCAO/R) stroke model; assay: Transient MCAO/R stroke model, infarct volume by TTC staining; assay type: in vivo, Sprague-Dawley rats; conditions: 3.5 mg/kg single i.v. bolus 4.5 h after ischemia onset; 90 min MCAO; TTC about 24 h; vs saline controls
[5] = system: transient bilateral common carotid artery occlusion (tBCCAO/R) global cerebral ischemia model; assay: Brain edema (brain water content) after tBCCAO/R; assay type: in vivo, C57BL/6 mice; conditions: 7 mg/kg i.v. 3 h after tBCCAO; 24 h reperfusion; vs saline controls
Method: C57BL/6 mice were subjected to two times 20 minutes bilateral common carotid arteries occlusion followed by reperfusion (tBCCAO/R) and treated with 7 mg/2 ml/kg RvTAT-PKD-S205 or some volume Saline via tail vein administered after 3 hours of the tBCCAO. After 24 hours of reperfusion, the ischemic mice were estimated by the Y maze Passive Avoidance task, as well as the MDA content in hippocampus and brain water content. […] FIG. 6C show the MDA content in hippocampus collected from Ischemic or sham mice after 24 hours of reperfusion subject to MDA ELISA assay. […] Data were shown as mean±SEM, (n=11 in each group), *p<0.05, **p<0.01 compared to Saline control group using Student t test. Animal treatments were randomized, and all procedures were performed blinded to treatment.
Modeling: C57 […] male mice weighing 20-30 g (6-7 weeks old) were allowed free access to food and water and were housed under constant environmental conditions (a 12/12 h light/dark cycle). […]
Mice were assessed for brain edema by the dry/wet weight measurement after 24 hrs BCCAO/R. Wet weight was determined immediately after dissection of the brain, then the tissue was dried at 55° C. to a constant weight over 24 hours to determine the dry weight. The percentage of brain water content was calculated as (wet weight−dry weight)/wet weight*100.

[6] = system: MDA content in hippocampus; assay: Malondialdehyde (MDA) assay after tBCCAO/R; assay type: in vivo, C57BL/6 mice; conditions: 7 mg/kg i.v. 3 h after tBCCAO; 24 h reperfusion; vs saline
Method: as §2
MDA is one of the important products of lipid peroxidation and the extent of lipid oxidation was determined by measuring MDA levels. […] The supernatants were collected after the lysates were centrifuged at 3,500 r/min for 10 min at 4° C., and MDA content was determined using MDA TCA kit (Nanjing Jiancheng Bioengineering Institute, Nanjing, China) following the manufacturer's protocol. The results were evaluated from the standard curve and calculated as nM/mg of tissue.

RRRQRRKKRGRKPERRRLKTTRL [RvTAT-ZIPK-T299, Fusion peptide: RvTAT at N-terminus of ZIPK-T299]
reduced HT22 cell death (HT22 cells): about 33%
reducing cortical neuronal death ([1]; 1000 nM peptide added 30 min before OGD, 20 h reperfusion, MTT): 12%

RRRQRRKKRGKKRPQRRYSNVP [RvTAT-opMLC-S20]
reduced HT22 cell death (HT22 cells): ~25%
survival of neurons ([1]; OGD model): did not significantly increase

RRRQRRKKRGNLSRRLKVTGDL [RvTAT-BECN1-T199, Fusion peptide: RvTAT at N-terminus of BECN1-T199]
reduced HT22 cell death (HT22 cells): ~21%

RRRQRRKKRGQIAKRRRLSSLRA [RvTAT-rSP6-S235, Fusion peptide: RvTAT at N-terminus of rSP6-S235]
reduced HT22 cell death (HT22 cells): about 29%

RRRQRRKKRGSGVRRRRLSNVSL [RvTAT-PKD-S205, Fusion peptide: RvTAT cell penetrating peptide at N-terminus of PKD-S205]
mean holding time, treated vs untreated ([2]; 3 days after tMCAO): no significant differences
Holding time on rod increase ([2]; 5 days after tMCAO): 70%
Holding time on rod increase ([2]; 7 days after tMCAO): 75%
increase in memory index (Y-maze passive avoidance) [3]: 30%
reduced the volume of total cerebral infarction [4]: approximately 60%
brain water content reduced [5]: 8.5%
reduced cell death (HT22 cells; 100 nM peptide): 11%
reduced cell death (HT22 cells; 200 nM peptide): 22%
reduced cell death (HT22 cells; 1600 nM peptide): 24%
most effective concentration (HT22 cells; glutamate induced apoptosis model): 400 nM
decrease in MDA level [6]: 55%
reducing neuronal death ([1]; 300 nM peptide added 30 min before OGD, 20 h reperfusion, MTT): 12%
